# Measured values reported in patent US20240158453A1, “Nucleic Acids That Manipulate Immune Pathways” (Children`s Medical Center Corporation, priority 2017, published 2024).
# Starred links: 1 amine or outer side, 2 acyl side, 3 side chain; linkers in the order of their positions; H or OH if unused. Positions of bridges follow the written chain, without caps; N, C: chain ends. Non-standard residues stand in square brackets, D forms with d. Residues, ends and D or L forms follow the SMILES beside them. Chains are numbered I, II in the order given. *: point of attachment. Actinocin(9to1) = Cc1c2oc3c(C)ccc(C(=O)[*:1])c3nc-2c(C(=O)[*:2])c(N)c1=O; NMeV = CN[C@H](C(=O)O)C(C)C; Cbz = O=C(OCc1ccccc1)*; Sar = CNCC(=O)O; CH2F = FC*
# What was measured:
# [1] = system: Myd88-/-/Trif-/- iBMDMs; assay: PI staining and LDH release quantification (TLR-induced necroptosis); format: cell-based, murine; conditions: MyD88-RIP3 expressing cells; GSK872 2.5 μM; Nec-1 5 μM; ZVAD 10 μM
# Method: (§1) PI staining and LDH release quantification. For experiments measuring end-point PI staining, PI (5 μM) was included in the culture media to monitor transient pore formation at the last 30 min for each incubation period. A Tecan plate reader was used to measure PI staining (excitation 535 nm, emission 617 nm). Supernatants were assayed for LDH release freshly after stimulation time courses using the Pierce LDH cytotoxicity colorimetric assay kit per the manufacturer's instruction. The same Tecan plate reader was used to measure LDH release (absorbance 490 nm and 680 nm). Cells treated with detergent-containing lysis buffer were used as positive control for PI staining, the resulted supernatants from treated cells were used as positive control for LDH release quantification.
# Generation of synthetic MyD88 molecules. To generate MyD88-NpLxIS and MyD88 CpLxIS alleles, the cDNA sequence encoding the STING pLxIS motif (340-378 a.a.) was fused in tandem then attached to the cDNA sequence encoding the MyD88 protein either at the 5-prime end (for MyD88-NpLxIS) or at the 3-prime end (for MyD88-CpLxIS). The fusion cDNAs were then synthesized as gBLOCKs via IDT. The mutant alleles were also synthesized as gBLOCKs. To generate the MyD88-RIP3 allele, the cDNA sequence encoding the full-length RIP3 was attached the MyD88-encoding cDNA sequence at the 3-prime end. The fusion cDNA was then synthesized as a gBLOCK via IDT. All synthetic DNA sequences were optimized to avoid internal repeats and for optimal expression in murine cells via the IDT online program.
# [2] = system: primary BMDMs; assay: LDH release from primary BMDMs stimulated with LPS in the presence of inhibitors; format: cell-based; conditions: 18 hr
# Method: as §1
# [3] = system: primary BMDMs; assay: Seahorse metabolic analysis (ECAR, OCR) of TLR-induced glycolysis; format: cell-based; conditions: for TLR-induced ECAR increase: primary BMDMs with inhibitor (2-DG 25 mM; Actinomycin D 1.5 μg/ml; BX795 5 μM; MRT67307 2.5 μM; Triciribine 20 μM), stimulated with LPS, P3C, R848; for ECAR / mitochondrial oxygen consumption (OCR): primary BMDMs or iBMDMs stimulated with the TLR ligand
# Method: Seahorse Metabolic Analysis. Extracellular acidification rate (ECAR) and oxygen consumption rate (OCR) were measured with a Seahorse XFe96 Extracellular Flux Analyzer instrument primary BMDMs and iBMDMs
# For real-time experiment, primary BMDMs (5×10^4 per well) and iBMDMs (7.5×10^4 per well) were seed in a Seahorse 96 well plate in complete DMEM medium. Cells were allowed to attach to the assay plate for 4-5 hours, then cells were washed one time with serum-free Seahorse Assay Medium and incubated in Seahorse Assay Medium containing 5% FBS, 10 mM Glucose and 2 mM Glutammine in 37° C. incubator without CO2 for 60 min. ECAR and OCR was measured under basal conditions, after treatment with TLR ligands (LPS 1 μg/ml; P3C 1 μg/ml; R848 1 μg/ml) or inhibitors (and their combination). In the assays which required pre-treatment with inhibitors, chemical inhibitors were injected into the wells by the Seahorse Analyzer, and the incubation time were allowed to proceed for 45 min, prior to the injection of TLR ligands. […] Data represent mean±SEM of triplicate wells.
# [4] = system: glycolysis; assay: 2-DG treatment of TLR-activated cells (Example 6); format: cell-based
# [5] = target: T1, myddosome (UniProt P0AES6+P22366); assay: Coumermycin-induced myddosome formation in Myd88-/-/Trif-/- iBMDMs expressing 3×FLAG-MyD88-GyrB; format: cell-based, murine; conditions: CM 0.5 μM
# T1 construct: expressed in transfected cells; host or cells: Myd88-/-/Trif-/- iBMDMs, retroviral transduction (pMSCV-IRES-GFP)
# Method: (§2) Gene expression analysis and ELISA. RNA was isolated from cell cultures using Qiashedder (Qiagen) and GeneJET RNA Purification Kit (Life Technologies). Purified RNA was analyzed for gene expression on a CFX384 real time cycler (Bio-rad) using TaqMan RNA-to-CT 1-Step Kit (Applied Biosystems) with probes specific for Rsad2, II-1b, Il-6 and Gapdh.
# For myddosome isolation, iBMDMs (5×10^6) were stimulated with ligands for indicated times, and subsequently lysed in 400 μL of lysis buffer containing 50 mM Tris-HCl (pH 7.5), 150 mM NaCl, 5% Glycerol, 1 mM Sodium dioxycholate and 1% NP40. Protease inhibitors and phosphatase inhibitors were added prior to cell lysis. Lysates were spun at top speed for 15 minutes at a table-top centrifuge in the cold room (at 4° C.). The cleared supernatants were collected and 80 μL of the supernatants was saved as sample inputs. 0.5 μg of the anti-MyD88 antibody with 15 15 μl (bed volume) of protein G sepharose (for endogenous MyD88) or 15 μl (bed volume) of anti-FLAG (M2) agarose (for 3×FLAG-MyD88 alleles) was added to the remaining supernatants and the incubation were allowed to proceed for 4-5 hr at 4° C. on a nutator. The beads containing the protein complexes were then washed for 3 times with lysis buffer, and 60 μL of SDS loading buffer was added. The protein complexes were further eluted by heating at 65° C. for 15 minutes. A portion of eluted protein complexes (20 μl) were separated by SDS-PAGE and analyzed by western blot.
# Cells were fixed at room temperature for 30 min, permeabilized with 0.2% Triton X-100 for 5 min at room temperature and […] with 2% goat serum in PBS supplemented with 50 mM ammonium chloride. Primary and secondary antibody staining were performed following product instructions. Working concentrations of primary antibodies were used as the following: pTBK1 (1:100), pp 38 (1:100), FLAG (M2) (1:100). Samples were imaged by the Zeiss 880 laser scanning confocal microscope.
# [6] = system: Il-1b and Il-6 transcripts; assay: qPCR of TLR-induced Il-1b and Il-6 transcripts in primary BMDMs; format: cell-based; conditions: primary BMDMs pretreated with ActD 1.5 μg/ml for 40 min, TLR ligands 4 h
# Method: as §2
# [7] = system: TBK1; assay: Western analysis of TBK1 activation in primary BMDMs stimulated with TLR ligands; format: cell-based
# Method: (§3) Western blotting and immunoprecipitation. For western analysis of signaling pathway activation, primary BMDMs (1×10^6) or iBMDMs (0.5×10^6) were seeded in 12 well plates and stimulated with ligands for indicated periods, and subsequently lysed in 300 μl 1×SDS containing 8 M UREA. Lysates were incubated at 65° C. for 15 min. Before SDS-PAGE separation, lysates were passed through a BD 1 ml sub-Q syringe attached to a 26G needle to reduce viscosity. 15 μl of individual samples (15-20 μg protein from whole cell extract) were separated by SDS-PAGE followed by western analysis.
# [8] = system: AKT; assay: Western analysis of AKT phosphorylation in primary BMDMs stimulated with TLR ligands; format: cell-based; conditions: primary WT BMDMs
# Method: as §3
# [9] = target: T2, TLR4 (Mus musculus, UniProt Q9JHF9+Q9QUK6); assay: Isolation of protein complexes associated with activated TLR4; format: cell-based; conditions: iBMDMs, LPS 100 ng/ml, within minutes
# T2 construct: endogenous in cells; host or cells: WT iBMDMs
# Method: For isolation of protein complexes associated with activated TLRs, cells were lysed using a modified lysis buffer containing 50 mM HEPES, 150 mM NaCl, 0.5% DDM (n-Dodecyl-β-D-Maltoside), 0.05% CHS (cholesteryl hemisuccinate). This buffer is suitable for the isolation of membrane protein complexes. 0.5 μg of biotinylated anti-TLR4 (Sal5-21) antibody was used (per sample) to capture the TLR4 signaling complex with streptavidin agarose. 15 μl (bed volume) of anti-HA agarose was used (per sample) to capture the TLR9-HA signaling complex. Immunoprecipitates were washed 3 times with the modified lysis buffer and analyzed by western blot.
# [10] = system: IRF3; assay: Western analysis of IRF3 activation in primary BMDMs stimulated with TLR ligands; format: cell-based
# Method: as §3
# [11] = system: PARP; assay: PARP cleavage by western analysis; format: cell-based, murine; conditions: Myd88-/-/Trif-/- iBMDMs expressing MyD88-RIP3, TLR ligands or staurosporine 1 μM, 6 hr
# Method: as §3
# [12] = system: Myd88-/-/Trif-/- iBMDMs expressing MyD88-RIP3; assay: Microscopy imaging of cell morphology; format: cell-based, murine
# Method: Microscopy imaging of cell morphology and live cell imaging. To determine cell morphology after TLR stimulation, Myd8^−/−/Trif^−/− iBMDMs expressing MyD88 and MyD88-RIP3 were seeded in 12-well plates (0.5×10^6 per well) and were subjected to indicated treatments (Staurosporine 1 μM; TLR ligands 1 μg/ml) to induce cell death. For static image capture, a Nikon Eclipse TS100 microscope was used with 40× magnification. Images were processed with the “NIS-Elements F” software. Representative images were chosen from at least three randomly chosen fields from one representative experiment of three independent experiments.
# T2 sequence (Q8R4K2 whole entry): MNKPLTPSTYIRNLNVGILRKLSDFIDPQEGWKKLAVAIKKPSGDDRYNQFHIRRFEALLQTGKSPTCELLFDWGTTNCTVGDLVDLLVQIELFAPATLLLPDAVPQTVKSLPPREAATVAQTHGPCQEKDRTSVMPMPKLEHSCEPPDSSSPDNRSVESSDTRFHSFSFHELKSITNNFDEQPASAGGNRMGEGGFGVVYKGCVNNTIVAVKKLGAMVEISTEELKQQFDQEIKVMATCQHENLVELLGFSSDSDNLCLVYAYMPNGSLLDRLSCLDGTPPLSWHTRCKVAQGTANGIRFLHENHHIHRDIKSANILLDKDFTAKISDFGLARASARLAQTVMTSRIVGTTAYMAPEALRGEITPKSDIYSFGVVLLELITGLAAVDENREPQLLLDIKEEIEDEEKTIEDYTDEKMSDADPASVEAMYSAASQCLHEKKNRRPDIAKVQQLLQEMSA
# T2 sequence (Q9QUK6 26-835): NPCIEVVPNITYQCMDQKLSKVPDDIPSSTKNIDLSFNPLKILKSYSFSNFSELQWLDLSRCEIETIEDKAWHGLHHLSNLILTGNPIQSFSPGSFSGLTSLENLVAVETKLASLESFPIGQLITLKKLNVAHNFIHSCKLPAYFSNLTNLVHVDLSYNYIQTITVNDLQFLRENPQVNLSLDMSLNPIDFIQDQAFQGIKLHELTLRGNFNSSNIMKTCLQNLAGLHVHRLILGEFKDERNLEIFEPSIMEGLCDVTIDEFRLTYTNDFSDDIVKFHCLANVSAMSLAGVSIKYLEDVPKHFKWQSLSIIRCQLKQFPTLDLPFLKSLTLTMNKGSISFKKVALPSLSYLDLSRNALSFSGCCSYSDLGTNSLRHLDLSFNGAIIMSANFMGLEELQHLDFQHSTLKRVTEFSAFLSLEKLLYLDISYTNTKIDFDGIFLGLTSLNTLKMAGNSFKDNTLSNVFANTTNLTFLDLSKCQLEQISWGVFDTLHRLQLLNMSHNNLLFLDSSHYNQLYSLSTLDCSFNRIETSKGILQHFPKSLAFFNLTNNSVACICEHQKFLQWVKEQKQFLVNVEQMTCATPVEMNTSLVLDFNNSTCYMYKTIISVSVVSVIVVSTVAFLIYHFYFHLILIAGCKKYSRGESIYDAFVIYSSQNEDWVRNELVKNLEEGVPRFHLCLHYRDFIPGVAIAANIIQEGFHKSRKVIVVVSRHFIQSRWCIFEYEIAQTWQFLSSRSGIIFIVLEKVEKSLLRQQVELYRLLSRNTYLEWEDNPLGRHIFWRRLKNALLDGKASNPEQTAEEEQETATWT
# T2 sequence (Q9JHF9 19-160): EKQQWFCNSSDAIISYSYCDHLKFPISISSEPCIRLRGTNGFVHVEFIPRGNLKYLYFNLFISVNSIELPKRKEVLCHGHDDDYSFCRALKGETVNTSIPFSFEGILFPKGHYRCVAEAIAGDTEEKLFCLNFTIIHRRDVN
# T2 sequence (P22366 whole entry, further chain): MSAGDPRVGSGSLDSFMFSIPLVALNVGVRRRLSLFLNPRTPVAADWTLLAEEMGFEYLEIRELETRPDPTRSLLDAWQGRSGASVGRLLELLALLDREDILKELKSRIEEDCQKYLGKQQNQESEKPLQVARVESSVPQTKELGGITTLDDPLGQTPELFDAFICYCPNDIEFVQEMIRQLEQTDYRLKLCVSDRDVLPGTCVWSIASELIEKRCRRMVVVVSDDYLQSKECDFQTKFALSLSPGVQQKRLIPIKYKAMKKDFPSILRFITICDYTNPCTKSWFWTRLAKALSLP
# T2 sequence (Q8CFA1 whole entry, further chain): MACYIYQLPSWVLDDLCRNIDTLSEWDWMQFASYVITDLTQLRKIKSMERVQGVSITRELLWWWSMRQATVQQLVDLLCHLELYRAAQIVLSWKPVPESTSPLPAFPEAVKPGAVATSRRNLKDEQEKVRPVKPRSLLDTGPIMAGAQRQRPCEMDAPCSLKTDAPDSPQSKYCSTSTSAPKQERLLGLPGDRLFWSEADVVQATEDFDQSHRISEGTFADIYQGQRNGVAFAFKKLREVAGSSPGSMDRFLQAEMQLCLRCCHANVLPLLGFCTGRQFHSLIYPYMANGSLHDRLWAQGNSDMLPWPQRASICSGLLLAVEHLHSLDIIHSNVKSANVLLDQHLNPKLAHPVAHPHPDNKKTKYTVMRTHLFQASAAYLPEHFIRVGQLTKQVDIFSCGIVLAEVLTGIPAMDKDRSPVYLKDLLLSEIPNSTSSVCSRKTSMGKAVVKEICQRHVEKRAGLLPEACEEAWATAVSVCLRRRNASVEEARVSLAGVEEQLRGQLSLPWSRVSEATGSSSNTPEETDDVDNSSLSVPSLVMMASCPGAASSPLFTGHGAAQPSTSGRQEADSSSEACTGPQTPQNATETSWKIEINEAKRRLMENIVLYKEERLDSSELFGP
compound,measurement,setting,value
COC(=O)C[C@H](NC(=O)[C@H](C)NC(=O)[C@@H](NC(=O)OCc1ccccc1)C(C)C)C(=O)CF [ZVAD] (Cbz-Val-Ala-Asp(OMe)-CH2F),TLR-induced LDH release (cell death) with inhibitor,[1],failed to prevent
same,TLR-induced PI staining (membrane rupture) with inhibitor,[1],failed to prevent
same,necroptosis (LDH release) of primary BMDMs,[2]; ZVAD 10 μM pre-treatment followed by LPS,induced necroptosis
OCC1OC(O)CC(O)C1O (stereo not shown) [2-DG],TLR-induced ECAR increase,[3],blocked
same,cytokine gene transcription versus translation,[4],uncoupled cytokine gene transcription from translation
same,host responses at the receptor proximal,[4],did not affect
coumermycin [CM],myddosome formation,[5],induced myddosome formation
same,p38 activation (nuclear staining pattern),[5]; 30 min,clearly activated
same,pTBK1 staining of MyD88 specks,[5]; 30 min,stained positive for pTBK1
same,phosphorylated p38 (pp38) within MyD88 specks,[5]; 30 min,not detected within MyD88 specks
same,cells with distinct MyD88 specks,"[5]; 30 min, immunofluorescence",more than 60%
same,Il-1b expression,"[5]; 4 hr, qPCR",comparable to that induced by LPS and P3C treatment
O=C(NCCCNc1nc(Nc2cccc(NC(=O)N3CCCC3)c2)ncc1I)c1cccs1 [BX795],TLR-induced ECAR increase,[3],dampened
CN1C(=O)C(Cc2c[nH]c3ccccc23)NC1=S (stereo not shown) [Nec-1],TLR-induced LDH release (cell death) with inhibitor,[1],unaffected
same,TLR-induced PI staining (membrane rupture) with inhibitor,[1],unaffected
same,prevention of ZVAD plus LPS induced necroptosis,[2]; primary BMDMs,could be prevented
"Cc1c2oc3c(C)ccc(C(=O)N[C@@H]4C(=O)N[C@H](C(C)C)C(=O)N5CCC[C@H]5C(=O)N(C)CC(=O)N(C)[C@@H](C(C)C)C(=O)O[C@@H]4C)c3nc-2c(C(=O)N[C@@H]2C(=O)N[C@H](C(C)C)C(=O)N3CCC[C@H]3C(=O)N(C)CC(=O)N(C)[C@@H](C(C)C)C(=O)O[C@@H]2C)c(N)c1=O [actinomycin D] (I: T[dV]P[Sar][NMeV] / II: T[dV]P[Sar][NMeV]; ester I:1-I:C, II:1-II:C; linker I:N-II:N via Actinocin(9to1))",TLR-induced ECAR increase,[3],still able to increase ECAR
same,TLR-induced transcription of Il-1b and Il-6,[6],prevented
CCOCc1nc2c(N)nc3ccccc3c2n1CC(C)(C)O [R848],TBK1 activation (pTBK1),[7],activated
same,ECAR,[3],increased ECAR rapidly
same,mitochondrial oxygen consumption (OCR),[3],without causing discernible changes
same,AKT phosphorylation,[8],induced AKT phosphorylation
lipopolysaccharide [LPS],TBK1 activation (pTBK1),[7],activated
same,"recruitment of endogenous MyD88, IRAK2 and IRAK4 to TLR4",[9],inducibly recruited
same,ECAR,[3],increased ECAR rapidly
same,mitochondrial oxygen consumption (OCR),[3],without causing discernible changes
same,IRF3 activation (pIRF3),[10],activated
same,AKT phosphorylation,[8],induced
O=C(NCCCNc1nc(Nc2cccc(CN3CCOCC3)c2)ncc1C1CC1)C1CCC1 [MRT67307],TLR-induced ECAR increase,[3],dampened
CN[C@@H]1C[C@H]2O[C@@](C)([C@@H]1OC)n1c3ccccc3c3c4c(c5c6ccccc6n2c5c31)C(=O)NC4 [staurosporine],PARP cleavage,[11],induced PARP cleavage
same,cell morphology,"[12]; 1 hr post-stimulation, TLR ligands or staurosporine 1 μM","membrane blebbing, generation of apoptotic bodies/vesicles"
CC(C)S(=O)(=O)c1ccc2nccc(Nc3ccc4scnc4c3)c2c1 [GSK872],TLR-induced LDH release (cell death) with inhibitor,[1],blocked
same,TLR-induced PI staining (membrane rupture) with inhibitor,[1],blocked
same,morphological changes of TLR-stimulated MyD88-RIP3 cells with inhibitor pre-treatment,[12]; GSK872 2.5 μM,could be suppressed
